# Where “and” joins values, the source holds several entries; their conditions need not be identical. Equal entries are not always repeated. Calls of active or inactive are those of the source. How the calls were made is not given here.
# Experiment: LAP4-GFP modulation potency in yeast, dose response, cell-based, MLPCN hits, flow cytometry (AID 2745);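 further: yeast exposed to compound for three hours at 30 degrees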
# Details: S. cerevisiae LAP4-GFP reporter, flow cytometry fluorescence; at 33 µM (top of the series)
row,SMILES,LAP4-GFP fluorescence (kMESF)
1,CCN(CC)c1ccc(/C=C2\C(=O)c3ccc(C(=O)O)cc3C2=O)cc1,392 kMESF (inactive)
2,Cc1ccc2[nH]c(C)c(/C=C/c3cc[n+](C)cc3)c2c1,8.71 kMESF (inactive)
3,O=[N+]([O-])c1ccc(Sc2nc3ccccc3o2)c([N+](=O)[O-])c1,4.88 kMESF (inactive)
4,Cc1ccc(N2C(=O)CC(Sc3ncn[nH]3)C2=O)cc1C (centres undefined),7.56 kMESF (inactive)
5,Cc1ccc(N=c2ssnc2Cl)cc1,10.6 kMESF (inactive)
6,COc1ccccc1[C@]1(C)ON(c2ccccc2C(F)(F)F)C1=O,7.79 kMESF (inactive)
7,O=C1C2C3C=CC(CO)(O3)C2C(=O)N1c1ccccc1-c1ccccc1 (centres undefined),5.75 kMESF (inactive)
8,CC(=O)CSc1ncnc2c1cnn2-c1ccccc1,3.61 kMESF (inactive)
9,COc1cc(N=c2ssnc2Cl)cc(OC)c1,11.3 kMESF (inactive)
10,N#Cc1ccc(N=c2ssnc2Cl)cc1,9.41 kMESF (inactive)
11,O=C(OCC(=O)N1CCN(C(=O)c2ccco2)CC1)c1cc(-c2ccccc2)nc2ccccc12,10.4 kMESF (inactive) and 6.1 kMESF (inactive)
12,O=c1oc(/C=C/c2ccc([N+](=O)[O-])s2)nc2ccccc12,12.6 kMESF (inactive)
13,COc1ccccc1-c1nc2s/c(=C\c3cccs3)c(=O)n2n1,5.46 kMESF (inactive)
14,Cc1cc(C)c2c(c1)/C(=C/C(=O)c1ccc(Br)s1)C(=O)N2,6.56 kMESF (inactive)
15,COc1cccc2cc(-c3nc4ccccc4o3)c(=O)oc12,3.03 kMESF (inactive)
16,C#CCOCCOCCOCCNc1nc(N2CCN(C(=O)CCCCCCCCCCNC(=O)[C@H](CCCCN)n3cc(CCCC(=O)O)nn3)CC2)nc(N2CCN(C(=O)CCCCCCCCCCNC(=O)[C@H](CCCN=C(N)N)n3cc(C[C@@H](C)CC)nn3)CC2)n1,5.16 kMESF (inactive)
17,Cc1ccc(C2=NN(S(C)(=O)=O)C(c3ccc4c(c3)OCO4)C2)cc1 (centres undefined),4.78 kMESF (inactive)
18,N/C(=N\OC(=O)c1cccc(Br)c1)c1ccccc1,4.51 kMESF (inactive)
19,O=C(NCc1ccc2c(c1)OCO2)c1nc(S(=O)(=O)Cc2ccccc2)ncc1Cl,4.7 kMESF (inactive)
20,CCC(=O)Nc1ccc(NC(=O)c2cc3ccccc3o2)c(OC)c1,3.41 kMESF (inactive)
21,Cc1ccc2c(c1)c(/C=C/c1cc[n+](C)cc1)c(C)n2C,4.11 kMESF (inactive)

row,SMILES,LAP4-GFP fluorescence (kMESF)
1,COc1cccc(N=Cc2nc(-c3ccccc3)oc2OC(C)=O)c1,12.8 kMESF (inactive)
2,Cc1ccc(-c2nn(C(C)(C)C)c3ncnc(N)c23)cc1,8.82 kMESF (inactive)
3,CCOc1cc(C=C2C(=O)c3ccccc3C2=O)ccc1OCC(=O)Nc1ccc(C)cc1,3.87 kMESF (inactive)
4,C/C(=N\Nc1ncnc2sc(C)c(C)c12)c1ccccn1,-7.63 kMESF (inactive)
5,CS(=O)(=O)N1N=C(c2ccccc2)CC1c1ccc2c(c1)OCO2 (centres undefined),-20.2 kMESF (inactive)
6,Cc1[nH][nH]c(=O)c1C(c1ccc(-c2ccc(Cl)cc2)o1)c1c(C)[nH][nH]c1=O,6.67 kMESF (inactive)
7,[O-][n+]1cccc2c(Br)cc(Br)c(O)c21,12.9 kMESF (inactive)
8,CN(C)/C=C/C(=O)c1ccc(-c2ccc(Cl)cc2Cl)o1,4.39 kMESF (inactive)
9,CCC(=O)Oc1oc(-c2ccccc2)nc1C=Nc1ccccc1OC,4.64 kMESF (inactive)
10,Cc1ccc2[nH]cc(/C=C/c3cc[n+](C)cc3)c2c1,5.34 kMESF (inactive)
11,O=c1[nH]c(-c2ccc(Cl)cc2)cs1,3.03 kMESF (inactive)
12,Cc1cc(NC(=O)c2cccnc2Cl)ccc1NC(=O)c1cc2ccccc2o1,3.41 kMESF (inactive)
13,C#CCOCCOCCOCCNc1nc(N2CCN(C(=O)CCCCCCCCCCNC(=O)[C@H](CCCCN)n3cc(C)nn3)CC2)nc(N2CCN(C(=O)CCCCCCCCCCNC(=O)[C@H](CCCN=C(N)N)n3cc(C[C@@H](C)CC)nn3)CC2)n1,6.77 kMESF (inactive)
14,CC(C)[C@]1(c2ccccc2)ON(c2ccccc2C(F)(F)F)C1=O,2.53 kMESF (inactive)
15,O=C1C(=O)c2ccccc2-c2ccccc21,5.27 kMESF (inactive)
16,COc1ccc(Cl)cc1C(Nc1cccnc1)c1ccc2cccnc2c1O (centres undefined),19.3 kMESF (inactive)
17,COc1ccc2c(c1)S/C(=C\C(=O)c1ccncc1)N2C,4.85 kMESF (inactive)
18,Cc1ccc2c(nc3s/c(=C\c4ccc(-c5ccccc5C(=O)O)o4)c(=O)n32)c1C,15.5 kMESF (inactive)
19,Oc1ccc(N=Nc2ccccc2)o1,18.8 kMESF (inactive)
20,O=C(/C=C/c1cccc(Cl)c1)c1nc2ccccc2[nH]1,4.71 kMESF (inactive)
21,CCN1/C(=C/c2ccc3cc(C)ccc3[n+]2CC)Sc2ccc3sccc3c21,10.7 kMESF (inactive)

row,SMILES,LAP4-GFP fluorescence (kMESF)
1,CCOC(=O)Cn1cc(/C=C/[N+](=O)[O-])c2ccccc21,8.42 kMESF (inactive)
2,Cc1ccc(NC(=O)c2nc(S(=O)(=O)Cc3ccccc3)ncc2Cl)cc1,9.01 kMESF (inactive)
3,Oc1cc(-c2ccc(N3CCCCC3)nc2)cc2cccnc12,4.15 kMESF (inactive)
4,C=CCOc1ccccc1C(=O)/C=C1/C(=O)Nc2ccccc21,10.2 kMESF (inactive)
5,CCCS(=O)(=O)c1nnnn1-c1cccc(OC)c1,18.2 kMESF (inactive)
6,COc1ccc(N2CCN(C(=O)c3ccccc3)CC2)c([N+](=O)[O-])c1,6.87 kMESF (inactive)
7,COc1ccccc1C(=O)NNC(=S)NC(=O)c1cccs1,6.21 kMESF (inactive)
8,COc1ccc(OC)c(S(=O)(=O)ON2C(=O)c3ccccc3C2=O)c1,1.75 kMESF (inactive)
9,Cc1ccccc1N1C(=O)C(Cl)=C(N2CCN(c3ccccc3)CC2)C1=O,3.41 kMESF (inactive)
10,Oc1c(C(Nc2cccc(C(F)(F)F)c2)c2ccncc2)ccc2cccnc12 (centres undefined),11.8 kMESF (inactive)
11,CCN(CC)c1ccc2cc(-c3nc(-c4ccc(OC)cc4)cs3)c(=O)oc2c1,1.57 kMESF (inactive)
12,COc1cc(/C=C2\CC/C(=C\c3cc(OC)c(O)c(OC)c3)C2=O)cc(OC)c1O,2.53 kMESF (inactive)
13,COc1ccc(C(=O)NC(=S)NNC(=O)CCc2ccccc2)cc1,5.9 kMESF (inactive)
14,O=C1/C(=C\c2ccc(O)c(O)c2)SC(=S)N1Cc1ccccc1,-9.95 kMESF (inactive)
15,Cc1cc(C)c(OCC(=O)Nc2nc(-c3ccccn3)cs2)c(C)c1,5.78 kMESF (inactive)
16,Cc1cc(O)c(C(=O)/C=C/c2c(F)c(F)c(F)c(F)c2F)c(=O)o1,7 kMESF (inactive)
17,COc1cc(NC(=O)c2ccc(C)cc2)ccc1NC(=O)c1cc2ccccc2o1,3.61 kMESF (inactive)
18,Oc1c(Br)cc(Br)cc1C=Nc1ccc2c(c1)OCO2,10.8 kMESF (inactive)
19,O=C1N(c2ccccc2C(F)(F)F)OC1(Cc1ccccc1)c1ccccc1 (centres undefined),4.48 kMESF (inactive)
20,O=C(Nc1nnc(-c2ccc(F)cc2)o1)c1cc(Cl)sc1Cl,6.71 kMESF (inactive)
21,C#CCOCCOCCOCCNc1nc(N2CCN(C(=O)CCCCCCCCCCNC(=O)[C@H](CCCCN)n3cc(CCO)nn3)CC2)nc(N2CCN(C(=O)CCCCCCCCCCNC(=O)[C@H](CCCCN)n3cc(C[C@@H](C)CC)nn3)CC2)n1,5.86 kMESF (inactive)

row,SMILES,LAP4-GFP fluorescence (kMESF)
1,Oc1ccc(COCc2ccccc2)c2cccnc12,20.4 kMESF (inactive)
2,Oc1c(CN2CCN(c3ccc(F)cc3)CC2)cc(Cl)c2cccnc12,13.1 kMESF (inactive)
3,N=C1/C(=C\c2coc3ccccc3c2=O)C(=O)N=C2SC(c3ccncc3)=NN12,-3.74 kMESF (inactive)
4,COc1ccc(C(=O)/C=C2/C(=O)Nc3ccccc32)cc1OC,4.19 kMESF (inactive)
5,CS(=O)(=O)c1nc(-c2ccccc2)cc(C(F)(F)F)n1,16.6 kMESF (inactive)
6,O=C1c2sc3nc4ccccc4n3c2C(=O)N1c1ccccc1Cl,3.64 kMESF (inactive)
7,CCN(CC)c1ccc2cc(-c3nc4ccccc4[nH]3)c(=O)oc2c1,3.03 kMESF (inactive)
8,CCCCC(=O)NC(=S)NNC(=O)CCc1ccccc1,8.13 kMESF (inactive)
9,O=C(Nc1nnc(-c2ccc(F)cc2)o1)c1cccc([N+](=O)[O-])c1,6.91 kMESF (inactive)
10,O=C(Nc1ccccc1)ON=C1CCCC1,4.79 kMESF (inactive)
11,CCCc1cc(N2CCN(c3ccccn3)CC2)n2nc(C)c(-c3ccccc3)c2n1,5.75 kMESF (inactive)
12,Cc1c(NC2=C(Cl)C(=O)N(c3ccccc3)C2=O)c(=O)n(-c2ccccc2)n1C,6.71 kMESF (inactive)
13,CCCOc1ccc(C(=O)NNC(=S)NC(=O)c2ccccc2)cc1,8.22 kMESF (inactive)
14,O=C1N(c2ccccc2C(F)(F)F)O[C@@]1(c1ccccc1)C1CCCC1,2.93 kMESF (inactive)
15,O=C1N(c2ccccc2C(F)(F)F)O[C@]1(c1ccccc1)C1CCCC1,3.98 kMESF (inactive)
16,O=C1CCN(S(=O)(=O)c2ccccc2)CCN1CCOCc1ccc(F)cc1,2.43 kMESF (inactive)
17,O=c1c2sc(-c3ccccc3)cc2nc2n1CCC2,5.96 kMESF (inactive)
18,COc1ccc(C(=O)NC(=S)NNC(=O)c2cnccn2)cc1OC,9.2 kMESF (inactive)
19,C=C1C(O)[C@@H]2O[C@]3(CC[C@H](/C=C/C(C)[C@@H]4CC(C)=CC5(O[C@H](C[C@@](C)(O)C(=O)O)CCC5O)O4)O3)CC[C@H]2O[C@@H]1C(O)CC(C)[C@H]1OC2(CCCCO2)CCC1C (some centres undefined),11.7 kMESF (inactive)
20,O=C(OCC(=O)N1CCN(C(=O)c2ccco2)CC1)c1cc(-c2cccc(Br)c2)nc2ccccc12,9.27 kMESF (inactive)
21,COc1ccc(OCC(=O)NNC(=S)NC(=O)C2CCCCC2)cc1,14.4 kMESF (inactive)

# Reference: PubChem BioAssay AID2745 (NMMLSC, 2010)
